Test results from the NIST ThermoML archive (doi:10.1016/j.jct.2007.03.002).
“And” between values parts separate entries of the source, which are not always exact repeats. Equal entries are not always repeated. Numbers after ± are expanded uncertainties.

Assays:
[1] = Crystal; for vapor or sublimation pressure: Calculated from knudsen effusion weight loss; for Normal melting temperature: DTA
[2] = Molar enthalpy of transition or fusion; conditions: Crystal; DSC
[3] = molar heat capacity at constant pressure; conditions: 298.15 K; 101.33 kPa; Crystal; Drop calorimetry
[4] = molar enthalpy of vaporization or sublimation; conditions: 298.15 K; Crystal; Static calorimetry

| Compound | vapor or sublimation pressure ([1]; 313 K) | vapor or sublimation pressure ([1]; 316 K) [kPa] | vapor or sublimation pressure ([1]; 319 K) | vapor or sublimation pressure ([1]; 322 K) | Normal melting temperature [1] [°C] | Molar enthalpy of transition or fusion [2] [kJ/mol] | molar heat capacity at constant pressure [3] [J/K/mol] | molar enthalpy [4] [kJ/mol] | mass density ([1]; 298.15 K, 101.33 kPa, mass and size of pellet) [kg/m3] |
| --- | --- | --- | --- | --- | --- | --- | --- | --- | --- |
| OCc1ccccc1-c1ccccc1 [2-biphenylmethanol] | 0.0001171 ± 3.5e-05 kPa and 0.0001179 ± 3.6e-05 kPa | 0.0001736 ± 5.2e-05 | 0.0002555 ± 7.7e-05 kPa and 0.0002537 ± 7.7e-05 kPa | 0.0003732 ± 0.00011 kPa and 0.0003682 ± 0.00011 kPa | 49.2 ± 0.7 | 19.7 ± 0.5 | 268.98 ± 22 | 107 ± 1.3 | – |
| OCc1ccc(-c2ccccc2)cc1 [4-biphenylmethanol] | – | – | – | – | 100.6 ± 0.7 | 27 ± 0.6 | 256.08 ± 66 | 107 ± 3.6 | 1390 ± 360 |
